Test results from PubChem BioAssay (NCI).
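All cell lines were grown in 96-well plates and treated with compound for 48 hours. GI50 is the concentration that inhibits growth by half. TGI: total growth inhibition.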

Key:
Assay in all cases: DTP human tumour cell line panel, 48 h
SF-295 CNS = test system: SF-295 CNS
HCT-15 colon = test system: HCT-15 colon
NCI-H522 lung = test system: NCI-H522 lung
RXF 393 renal = test system: RXF 393 renal
U251 CNS = test system: U251 CNS
A498 renal = test system: A498 renal
SK-MEL-5 melanoma = test system: SK-MEL-5 melanoma
SR leukemia = test system: SR leukemia
SF-268 CNS = test system: SF-268 CNS
OVCAR-4 ovarian = test system: OVCAR-4 ovarian
NCI-H226 lung = test system: NCI-H226 lung
MCF7 breast = test system: MCF7 breast
MDA-MB-231 breast = test system: MDA-MB-231 breast
SNB-19 CNS = test system: SNB-19 CNS
OVCAR-3 ovarian = test system: OVCAR-3 ovarian
MOLT-4 leukemia = test system: MOLT-4 leukemia
LOX IMVI melanoma = test system: LOX IMVI melanoma
SN12C renal = test system: SN12C renal
EKVX NSCLC = test system: EKVX NSCLC
PC-3 prostate = test system: PC-3 prostate
BT-549 breast = test system: BT-549 breast
K-562 leukemia = test system: K-562 leukemia
HCT-116 colon = test system: HCT-116 colon
SNB-75 CNS = test system: SNB-75 CNS
HS 578T breast = test system: HS 578T breast
HOP-62 NSCLC = test system: HOP-62 NSCLC
HL-60(TB) leukemia = test system: HL-60(TB) leukemia
UACC-257 melanoma = test system: UACC-257 melanoma
HCC-2998 colon = test system: HCC-2998 colon
NCI/ADR-RES ovarian = test system: NCI/ADR-RES ovarian
HOP-92 NSCLC = test system: HOP-92 NSCLC
MDA-MB-435 = test system: MDA-MB-435
MALME-3M melanoma = test system: MALME-3M melanoma
SK-MEL-2 melanoma = test system: SK-MEL-2 melanoma
ACHN renal = test system: ACHN renal
SK-MEL-28 melanoma = test system: SK-MEL-28 melanoma
SK-OV-3 ovarian = test system: SK-OV-3 ovarian
RPMI-8226 leukemia = test system: RPMI-8226 leukemia
CCRF-CEM leukemia = test system: CCRF-CEM leukemia
IGROV1 ovarian = test system: IGROV1 ovarian
A549 NSCLC = test system: A549 NSCLC
OVCAR-8 ovarian = test system: OVCAR-8 ovarian
M14 melanoma = test system: M14 melanoma
786-0 renal = test system: 786-0 renal
HT29 colon = test system: HT29 colon
T-47D breast = test system: T-47D breast
SW-620 colon = test system: SW-620 colon
UACC-62 melanoma = test system: UACC-62 melanoma
KM12 colon = test system: KM12 colon
OVCAR-5 ovarian = test system: OVCAR-5 ovarian
NCI-H23 lung = test system: NCI-H23 lung
NCI-H460 lung = test system: NCI-H460 lung
TK-10 renal = test system: TK-10 renal
COLO 205 colon = test system: COLO 205 colon
CAKI-1 renal = test system: CAKI-1 renal
SF-539 CNS = test system: SF-539 CNS
DU-145 prostate = test system: DU-145 prostate
UO-31 renal = test system: UO-31 renal

## C=C1CC2(OC1=O)C(=O)Nc1ccccc12 (stereo unspecified)
SF-295 CNS
  GI50: 28.9 µM
  TGI: > 100 µM
HCT-15 colon
  GI50: 1.51 µM
  TGI: 3.69 µM
NCI-H522 lung
  GI50: 0.542 µM
  TGI: 2.03 µM
RXF 393 renal
  GI50: 1.45 µM
  TGI: 2.9 µM
U251 CNS
  GI50: 13.1 µM
  TGI: 30.5 µM
A498 renal
  GI50: 5.91 µM
  TGI: 19.4 µM
SK-MEL-5 melanoma
  GI50: 6.13 µM
  TGI: 18.8 µM
SR leukemia
  GI50: 1.32 µM
  TGI: 6.03 µM
SF-268 CNS
  GI50: 6.72 µM
  TGI: 26 µM
OVCAR-4 ovarian
  GI50: 1.5 µM
  TGI: 3.37 µM
NCI-H226 lung
  GI50: 1.85 µM
  TGI: 5.24 µM
MCF7 breast
  GI50: 2.14 µM
  TGI: 6.17 µM
MDA-MB-231 breast
  GI50: 4.62 µM
  TGI: 17 µM
SNB-19 CNS
  GI50: 32.9 µM
  TGI: > 100 µM
OVCAR-3 ovarian
  GI50: 1.11 µM
  TGI: 2.77 µM
MOLT-4 leukemia
  GI50: 2 µM
  TGI: 5.98 µM
LOX IMVI melanoma
  GI50: 1.56 µM
  TGI: 3.03 µM
SN12C renal
  GI50: 3.74 µM
  TGI: 14.1 µM
EKVX NSCLC
  GI50: 13.5 µM
  TGI: 26.7 µM
PC-3 prostate
  GI50: 5.26 µM
  TGI: 18.8 µM
BT-549 breast
  GI50: 4.24 µM
  TGI: 17.1 µM
K-562 leukemia
  GI50: 1.88 µM
  TGI: 10 µM
HCT-116 colon
  GI50: 3.16 µM
  TGI: 10.5 µM
SNB-75 CNS
  GI50: 11 µM
  TGI: 28.1 µM
HS 578T breast
  GI50: 11 µM
  TGI: 56.6 µM
HOP-62 NSCLC
  GI50: 12.6 µM
  TGI: 29.6 µM
HL-60(TB) leukemia
  GI50: 1.73 µM
  TGI: 3.85 µM
UACC-257 melanoma
  GI50: 1.74 µM
  TGI: 4.24 µM
HCC-2998 colon
  GI50: 9.35 µM
  TGI: 23.2 µM
NCI/ADR-RES ovarian
  GI50: 2.86 µM
  TGI: 11.2 µM
HOP-92 NSCLC
  GI50: 1.28 µM
  TGI: 2.75 µM
MDA-MB-435
  GI50: 3.57 µM
  TGI: 14.9 µM
MALME-3M melanoma
  GI50: 1.24 µM
  TGI: 2.64 µM
SK-MEL-2 melanoma
  GI50: 13.4 µM
  TGI: 30 µM
ACHN renal
  GI50: 1.09 µM
  TGI: 2.29 µM
SK-MEL-28 melanoma
  GI50: 1.99 µM
  TGI: 4.26 µM
SK-OV-3 ovarian
  GI50: 26.7 µM
  TGI: > 100 µM
RPMI-8226 leukemia
  GI50: 1.8 µM
  TGI: 5.94 µM
CCRF-CEM leukemia
  GI50: 2.11 µM
  TGI: 7.15 µM
IGROV1 ovarian
  GI50: 2.36 µM
  TGI: 7.72 µM
A549 NSCLC
  GI50: 12.9 µM
  TGI: 34.3 µM
OVCAR-8 ovarian
  GI50: 2.91 µM
  TGI: 11 µM
M14 melanoma
  GI50: 2.71 µM
  TGI: 10 µM
786-0 renal
  GI50: 2.39 µM
  TGI: 6.64 µM
HT29 colon
  GI50: 3.03 µM
  TGI: 11 µM
T-47D breast
  GI50: 1.13 µM
  TGI: 2.92 µM
SW-620 colon
  GI50: 1.38 µM
  TGI: 3.22 µM
UACC-62 melanoma
  GI50: 2.23 µM
  TGI: 6.76 µM
KM12 colon
  GI50: 10.4 µM
  TGI: 27.2 µM
OVCAR-5 ovarian
  GI50: 5.83 µM
  TGI: 19.4 µM
NCI-H23 lung
  GI50: 6.34 µM
  TGI: 23.1 µM
NCI-H460 lung
  GI50: 6.48 µM
  TGI: 24.7 µM
TK-10 renal
  GI50: 1.8 µM
  TGI: 4.09 µM
COLO 205 colon
  GI50: 0.885 µM
  TGI: 2.41 µM
CAKI-1 renal
  GI50: 1.29 µM
  TGI: 2.65 µM
SF-539 CNS
  GI50: 1.88 µM
  TGI: 3.81 µM
DU-145 prostate
  GI50: 2.54 µM
  TGI: 8.47 µM
UO-31 renal
  GI50: 2.09 µM
  TGI: 5.79 µM
